# Laboratory results from US20140066365A1, “USE OF CALIXARENES ASSOCIATED WITH AN ANTIBIOTIC IN THE TREATMENT OF BACTERIAL INFECTIONS” (priority 2011, published 2014).
# Read-outs that look alike come from different tables or passages of the source.
# Tests used:
# Format in all cases: cell-based
# [1] = tested on: EcR3: ESBL-Producing Escherichia coli; assay: Antibiogram by the disk diffusion technique
# Procedure: The bacterial and antibiogramidentification is carried out by the VITEK 2 system (bioMerieux) and by the disk diffusion technique
# [2] = tested on: EcR1: Penicillinase-Producing Escherichia coli without Associated Resistance; assay: Antibiogram, MIC by the VITEK 2 system; settings: for MIC: Escherichia coli
# Procedure: (§1) 5.1 EcR1: Penicillinase-Producing Escherichia coli without Associated Resistance The bacterial and antibiogramidentification is carried out by the VITEK 2 system (bioMérieux) and by the disk diffusion technique.
# [3] = tested on: EcR1: Penicillinase-Producing Escherichia coli without Associated Resistance; assay: Antibiogram by the disk diffusion technique; settings: Table A1
# Procedure: as §1
# [4] = tested on: EcR2: Cephalosporinase-Hyperproducing Strain of Escherichia coli; assay: Antibiogram, MIC by the VITEK 1 system; settings: for MIC: Escherichia coli, read-out: MIC
# Procedure: (§2) The bacterial and antibiogramidentification is carried out by the VITEK 1 system (bioMérieux) and by the disk diffusion technique
# [5] = tested on: PaR5: Pseudomonas aeruginosa; assay: Antibiogram by the disk diffusion technique
# Procedure: (§3) The bacterial and antibiogramidentification is carried out by the VITEK 2 system (bioMérieux) and by the disk diffusion technique
# [6] = tested on: PaR2: Pseudomonas aeruginosa
# Procedure: as §3
# [7] = tested on: EcR2: Cephalosporinase-Hyperproducing Strain of Escherichia coli; assay: Antibiogram by the disk diffusion technique; settings: Table B1
# Procedure: as §2
# [8] = tested on: SaR1: Meticillin-Resistant Staphylococcus aureus without Associated Resistance; assay: Antibiogram, inhibition diameter (Table D1); settings: for Results: from diameter, against Dmin Dmax
# Procedure: (§4) The bacterial and antibiogramidentification is carried out by the VITEK 2 system (bioMérieux)
# [9] = tested on: SaR4: Meticillin-Resistant Staphylococcus aureus; assay: Antibiogram by the disk diffusion technique
# Procedure: as §3
# [10] = tested on: SaR3: Meticillin-Resistant Staphylococcus aureus; assay: Antibiogram by the disk diffusion technique; settings: for Diameter: Table E1; for diameter in mm: Table E2; for Results: Table E1, against Dmin Dmax
# Procedure: as §3
# [11] = tested on: SaR1: Meticillin-Resistant Staphylococcus aureus without Associated Resistance; assay: Antibiogram, MIC by the VITEK 2 system; settings: SaR1
# Procedure: as §4
# [12] = tested on: SaR4: Meticillin-Resistant Staphylococcus aureus; assay: Antibiogram, MIC by the VITEK 2 system; settings: SaR4
# Procedure: as §3
# [13] = EcR1, Table A2, read-out: MIC mg/L (diameter in mm)
# [14] = EcR1, VITEK 2, Table A1, read-out: MIC
# [15] = Staphylococcus aureus, Table D1, read-out: MIC
# [16] = Staphylococcus aureus, Table F1, read-out: MIC
molecule,measurement,setting,value
CCN[C@@H]1C[C@H](N)[C@@H](O[C@H]2OC(CN)=CC[C@H]2N)[C@H](O)[C@H]1O[C@H]1OC[C@](C)(O)[C@H](NC)[C@H]1O [Netilmicin],CA-SFM Interpretation,[1]; Cd CA-SFM 2011,Resistant
same,CLSI Interpretation,[1]; Cd CLSI 2011,Resistant
same,EUCAST Interpretation,[1]; Cd EUCAST 2011,Resistant
same,Diameter,[1]; Table C1,10 mm
same,Results,"[1]; Table C1, against Dmin Dmax",Resistant
same,diameter in mm,[1]; Table C2,10 mm
same,CA-SFM Interpretation,"[2]; EcR1, MIC against Cc CA-SFM 2011",Susceptible
same,CLSI Interpretation,"[2]; EcR1, MIC against Cc CLSI 2011",Susceptible
same,EUCAST Interpretation,"[2]; EcR1, MIC against Cc EUCAST 2011",Susceptible
same,Results,"[2]; EcR1, interpretation of the MIC, Table A1",Susceptible
same,MIC,[2]; [13],≤ 1 mg/L
same,MIC,[2]; [14],≤ 1 mg/L
same,Diameter,"[3]; EcR1, disk diffusion",24 mm
same,Results,"[3]; EcR1, interpretation of the diameter against Dmin Dmax",Susceptible
same,CA-SFM Interpretation,"[4]; EcR2, from MIC, Cc CA-SFM 2011",Susceptible
same,CLSI Interpretation,"[4]; EcR2, from MIC, Cc CLSI 2011",Susceptible
same,EUCAST Interpretation,"[4]; EcR2, from MIC, Cc EUCAST 2011",Susceptible
same,MIC,"[4]; EcR2, VITEK 1, Table B1",≤ 1 µg/mL
same,MIC,"[4]; EcR2, Table B2, MIC",≤ 1 µg/mL
same,Diameter,"[5]; PaR5, Table I1",28 mm
same,Results,"[5]; PaR5, Table I1, against Dmin-Dmax",Susceptible
same,diameter in mm,"[5]; disk diffusion inhibition diameter, strain PaR5",28 mm
same,CA-SFM Interpretation,"[5]; disk diffusion, PaR5, versus critical diameter CA-SFM 2011",Susceptible
same,CLSI Interpretation,"[5]; disk diffusion, PaR5, versus critical diameter CLSI 2011",Susceptible
same,EUCAST Interpretation,"[5]; disk diffusion, PaR5, versus critical diameter EUCAST 2011, for ** antibiotics the disk load differs and the EUCAST interpretation is not applicable",Susceptible
same,CA-SFM Interpretation,[6]; Cd CA-SFM 2011,Susceptible
same,CLSI Interpretation,[6]; Cd CLSI 2011,Susceptible
same,EUCAST Interpretation,[6]; Cd EUCAST 2011,Susceptible
same,Diameter,[6]; Table G1,19 mm
same,Results,"[6]; Table G1, against Dmin-Dmax",Susceptible
same,diameter in mm,[6]; Table G2,19 mm
same,Diameter,"[7]; EcR2, disk diffusion",21
same,Results,"[7]; EcR2, rows that print a diameter",Susceptible
NC[C@H]1O[C@H](O[C@H]2[C@H](O)[C@@H](O[C@H]3O[C@H](CO)[C@@H](O)[C@H](N)[C@H]3O)[C@H](N)C[C@@H]2N)[C@H](O)[C@@H](O)[C@@H]1O [Kanamycin],Diameter,[8],20 mm
same,Diameter,[9]; Table F1,7
same,Diameter,"[9]; Table F2, diameters",7 mm
same,Diameter,[10],6 mm
same,diameter in mm,[10],6 mm
same,MIC mg/L,[11]; Table D2,≦4 mg/L
same,MIC,[11]; [15],≤ 4 µg/mL
Pristinamycin,MIC mg/L,[12]; Table F1,≦2 mg/L
same,Results,"[12]; Table F1, MIC",Susceptible
same,MIC,"[12]; Table F2, MIC",≦2 mg/L
same,CA-SFM Interpretation,"[12]; from MIC, Cc CA-SFM 2011",Susceptible
same,Diameter,[8],25 mm
same,Results,[8],Susceptible
same,CA-SFM Interpretation,[10]; Cd CA-SFM 2011,Susceptible
same,Diameter,[10],23 mm
same,Results,[10],Susceptible
same,diameter in mm,[10],23 mm
same,CA-SFM Interpretation,[11]; Cc CA-SFM 2011,Susceptible
same,MIC mg/L,[11]; Table D1,≦0.5 mg/L
same,Results,"[11]; Table D1, from MIC",Susceptible
same,MIC mg/L,[11]; Table D2,≦0.5 mg/L
CC1COc2c(N3CCN(C)CC3)c(F)cc3c(=O)c(C(=O)O)cn1c23 (stereo not shown) [Ofloxacin],MIC,[12]; [16],≥ 8 µg/mL
same,MIC,"[12]; Staphylococcus aureus, Table F2, MIC, read-out: MIC",≥ 8 µg/mL
same,MIC,[2]; [13],≤ 0.25 mg/L
same,MIC,[2]; [14],≤ 0.25 mg/L
same,Diameter,[8],24 mm
same,Diameter,"[5]; PaR5, Table I1",11 mm
same,Diameter,[10],6 mm
same,diameter in mm,[10],6 mm
same,MIC,[11]; Table D2,1 µg/mL
same,MIC,[11]; [15],1 µg/mL
O=C(N[C@H](CO)[C@H](O)c1ccc([N+](=O)[O-])cc1)C(Cl)Cl [Chloramphenicol],Results,"[12]; Table F1, MIC",Susceptible
same,MIC,[12]; [16],8 µg/mL
same,Diameter,[8],25 mm
same,Results,[8],Susceptible
same,Diameter,[10],6 mm
same,Results,[10],Resistant
